Reference: ChEMBL document CHEMBL4765471, “1-Methyl-1H-pyrazole-5-carboxamide Derivatives Exhibit Unexpected Acute Mammalian Toxicity” (J Med Chem, 2021)

Columns and labels:
[1] = Inhibition of Haemonchus contortus by L4 development assay; assay type: functional
[2] = Toxicity in human MCF-10A cells; assay type: cell-based
[3] = Selectivity index, ratio of IC50 for toxicity in rat FAO cells assessed as reduction in cellular respiration to IC50 for inhibition of Haemonchus contortus by L4 development assay
[4] = Toxicity in rat FAO cells assessed as reduction in cell proliferation incubated for 48 hrs by crystal violet staining based assay
[5] = Toxicity in rat FAO cells assessed as reduction in cellular respiration incubated over 1 hrs by extracellular flux analyzer based assay; assay type: cell-based
[6] = Toxicity in orally dosed Swiss mouse assessed as induction of observable clinical effects measured 2 to 4 days after dosing; assay type: organism-based; conditions: in vivo, po, time 2-4 day
[7] = Toxicity in male Swiss mouse assessed as induction of reversible motor depression at 50 mg/kg, po; assay type: organism-based; conditions: in vivo
[8] = Toxicity in female Swiss mouse assessed as induction of reversible motor depression at 30 mg/kg, po; assay type: organism-based; conditions: in vivo
[9] = Toxicity in Swiss mouse assessed as induction of reversible motor depression at 5 mg/kg, po measured at first 15 mins post dosing; assay type: organism-based; conditions: in vivo, 0.25 h
[10] = Toxicity in male Swiss mouse assessed as induction of reversible motor depression at 20 mg/kg, po; assay type: organism-based; conditions: in vivo
[11] = Toxicity in female Swiss mouse assessed as induction of reversible motor depression at 20 mg/kg, po; assay type: organism-based; conditions: in vivo

Compound	IC50 [1] [nM]	IC50 [2] [nM]	Ratio IC50 [3]	IC50 at 48 h [4] [nM]	IC50 at 1 h [5] [nM]	MTD [6] [mg/kg]	Activity [7]	Activity [8]	Activity [9]	Activity [10]	Activity [11]
CCc1nn(C)c(C(=O)NCc2ccc(Oc3ccc(Cl)cc3)cc2)c1Cl	80	8700	6	< 6000	510						
Cc1ccc(Oc2ccc(CNC(=O)c3c(F)cnn3C)cc2)cc1	10	13700	430	< 6000	4300	20	Toxic	Toxic			
CCc1nc(-c2ccc(CNC(=O)c3ccnn3C)cc2)no1	200	> 100000	7	< 6000	1300	1			Toxic		
CCc1nc(-c2ccc(CNC(=O)c3c(Cl)c(CC)nn3C)cc2)no1	2	> 50000	80	< 6000	160						
Cn1ncc(Cl)c1C(=O)NCc1ccc(-c2noc(C3CC3)n2)cc1	0.9	24300	4144	< 6000	3730	1			Toxic		
Cc1nn(C)c(C(=O)NCc2ccc(Oc3ccc(Cl)cc3)cc2)c1Cl	< 0.7	50000	181	< 6000	1270						
Cn1ncc(Cl)c1C(=O)NCc1ccc(Oc2ccc(Cl)cc2)cc1	1	> 50000	1700	< 6000	1700	5				Toxic	Toxic
Cn1ncc(Cl)c1C(=O)NCc1ccc(Oc2ccc(Cl)nc2)cc1	30	> 50000	63	< 6000	1900	1			Toxic		
Cc1nn(C)c(C(=O)NCc2ccc(Oc3ccc(Cl)nc3)cc2)c1Cl	0.3	> 50000	500	< 6000	150	1			Toxic		
CCc1nn(C)c(C(=O)NCc2ccc(Oc3ccc(C)cc3)cc2)c1Cl [TOLFENPYRAD]	20	33700	55	< 6000	1100	1			Toxic		
